Experiment [1] addresses Ecto-ATPase. Particulars: Drakulich et al.; cited from earlier work.
In experiment [2] the test system is thalamic neurons. Nature of the experiment: HFS-induced depression of eEPSPs in thalamic slices, pharmacology. The class given is cell-based, mouse. Particulars: 50 μM; HFS 250 μA, 100 μs, 5 sec, 20° C.
The subject of experiment [3] is thalamic slices. Nature of the experiment: Extracellular adenosine by biosensor during HFS of thalamic slices. The experiment is classed as cell-based, mouse. As to conditions: 50 μM. Here is the method: Thalamic slices (300 μm) from 14-18 day old mouse pups (FVB/NJ mice; Jackson Laboratory) were cut on a Vibratome (TPI) in an ice-cold cutting solution containing (in mM): 2.5 KCl, 1.25 NaH2PO4, 10 MgSO4, 5 CaCl2, 10 glucose, 26 NaHCO3, 230 sucrose and gassed with 5% CO2 and 95% O2. Slices were incubated for a minimum of 1 hr in a slice solution containing (in mM): 126 NaCl, 2.5 KCl, 1.25 NaH2PO4, 2 MgCl2, 2 CaCl2, 10 glucose, and 26 NaHCO3, pH 7.4, and gassed with 5% CO2 and 95% O2 at room temperature. The slices were transferred to a recording chamber (1.5 ml) perfused with aCSF at room temperature or 32° C. Whole-cell current clamp recordings were obtained using a 700B Multiclamp amplifier (Axon Instruments) (Jiang et al., “A Kainate Receptor Increases The Efficacy of Gabaergic Synapses,” Neuron 30:503-13 (2001); Tian et al., “An Astrocytic Basis of Epilepsy,” Nat Med 11:973-81 (2005), which are hereby incorporated by reference in their entirety). Concentric bipolar stimulating electrodes (FHC) were placed ˜100-400 μm ventromedial to the patched VL thalamic neuron. […] Adenosine measurements were detected using needle shaped electrode (Pt/Ir wire) biosensors (Sarissa Biomedical). […]

For experiment [4], the target named is Ecto-ATPase. As to conditions: Crack et al.; cited from earlier work.
In experiment [5] the target is Rat Parotid Ecto-ATPase. Particulars: Dowd et al.; cited from earlier work.
Experiment [6] deals with P2 receptors. As to conditions: cited from earlier work.

“Also recorded” adds a separate entry of the source.

The Ki is the equilibrium dissociation constant of an inhibitor or competing ligand from its target. The IC50 is the concentration needed to halve the response being measured. `CCN(CC)c1ncnc2c1ncn2C1OC(COP(=O)(O)OP(=O)(O)C(Br)(Br)P(=O)(O)O)C(O)C1O` [ARL67156, 6-N,N-diethyl-D-beta, gamma-dibromomethyleneATP]: the Ki in experiment [1] was 0.255 µM. Also, the “effect on HFS-induced depression of eEPSPs (FIG. 3G)” value in experiment [2] is “attenuated HFS-induced depression of eEPSPs”. Besides, the “HFS-induced increase in extracellular adenosine” value is reported as “reduction in the HFS-induced adenosine increase” in experiment [3] and “reduced adenosine increases during HFS; also recorded: did not completely block the rise in adenosine” in experiment [3] (listed as ARL). Moreover, the IC50 in experiment [4] was 4.6 µM; in experiment [5], 120 µM. Besides, in experiment [6], the “effect on P2 receptors” value is “lack of or only has weak effect”.

The record behind these values is patent US20100284984A1, “ADENOSINE AND ITS MIMETICS. MODULATORS, TRANSPORT INHIBITORS, AND RECEPTOR AGONISTS AS A THERAPEUTIC TOOL TO REPLACE OR IMPROVE THE EFFICACY OF DEEP BRAIN STIMULATION” (University of Rochester, priority 2007, published 2010).
